Entries after “also recorded” stand apart in the source; their conditions may differ.
Columns and labels:
H-Ras(M72C) GppNHp [1] = biological target: T1, H-Ras(M72C) GppNHp (Homo sapiens, UniProt P01112, M72C); test: βME50 and percent labeling of tethering fragments, GppNHp state; assay type: binding; parameters: Labeling studies were conducted using the 1-166 H-Ras(M72C) construct containing all endogenous cysteines; His6; made in house; host or cells: Escherichia coli BL21(DE3)
Experimental: FIG. 32. […] Percent labeling against H-Ras(M72C) GDP and GppNHp at the screening βME concentration (1 mM) are graphed.
A tethering library of 960 disulfides were screened against 1-169 K-Ras(M72C) GDP using intact protein mass spectrometry to monitor percent modification (See Methods, and FIG. 37). […] To better prioritize tethering fragments, a βME50 value (the concentration of βME needed to reduce disulfide fragment modification to 50%) was determined for each compound. A higher βME50 value corresponds to a better fragment as it can bind with increasing concentrations of competitive thiol (Erlanson et al., 2004; Yang et al., 2009).

[2] = biological target: T2, H-Ras(M72C) GDP binding to SOScat (Homo sapiens, UniProt P01112, M72C); test: Ras GDP in vitro pull down by His6 tagged SOScat
T2 construct: and H-Ras (residues 1-166) were transformed into Escherichia coli; His6; made in house; host or cells: Escherichia coli BL21(DE3)
Experimental: Ras GDP In Vitro Pull Down Assay by His6 Tagged SOS^CAT
This experiment was created based on a procedure published in Hall et al., 2001. For each SOS^CAT in vitro pull down the total volume was 500 μL. Each reaction had the following final composition: Either 20, 80, 200, 400, or 800 nM Ras GDP (from 0.2 mg/mL Ras stock), 75 nM BSA (2.5 μg, 5 μL of 0.5 mg/mL BSA stock), 200 nM of His6-SOS^CAT (6 μg, 3 μL of diluted 0.2 mg/mL stock of His6-SOS^CAT), and SOS^CAT Pull Down Buffer to volume (20 mM Tris (pH 7.6), 50 mM NaCl, 5 mM EDTA, 1% Triton X-100, 20 mM imidazole). Samples were then mixed by gentle rotation at 4° C. for 30 min. While equilibrating, add 50 μL Ni-NTA slurry (Qiagen) to a cellulose acetate spin cup and spin at 5,000 rpm on a tabletop centrifuge for 30 seconds. Wash the beads with 400 μL of SOS^CAT Pull Down Buffer to wash away bead storage buffer. Before adding each pull down solution, take 10 μL and save as a loading control sample. To each spin cup filled with washed Ni-NTA beads, add the remaining equilibrated pull down solution, seal the spin cup with parafilm and let rotate at 4° C. for 30 more minutes. After mixing, centrifuge the sample for 30 seconds at 5,000 rpm. Toss flow through. Wash the beads×5 with 400 μL of SOS^CAT Pull Down Buffer. After last wash, centrifuge one last time to remove any excess buffer stuck to the beads. To each cup, add 50 μL of 5×SDS loading buffer and mix by vortexing. Let the buffer sit on the beads for 5 minutes and then elute into a fresh tube by centrifuging at 5000 rpm for 1.5 minutes. Load 10 μL of each loading control sample and 25 μL of each eluted pull down onto a SDS-PAGE gel and transfer to a nitrocellulose blot for Western Blot analysis. Block with 5% BSA TBS buffer and then blot with pan Ras primary antibody at a 1:500 dilution in 5% BSA in TBST (Cell Signaling #3965). Blots were read out using LICOR compatible secondary antibodies and quantified. The largest input signal was normalized to one for each protein construct and each pull-down signal (i.e. 20 nM, 80 nM, 200 nM, 400 nM, and 800 nM respectively) was reported relative to that maximum signal. Thus, normalized pull-down signals represent the proportion of Ras pulled down relative to the maximum blot signal detected for that particular protein construct.

H-Ras(M72C) GppNHp [3] = biological target: T1, H-Ras(M72C) GppNHp; test: EDTA catalyzed exchange and subsequent pull-down by Raf-1-RBD (nucleotide preference); assay type: biochemical; parameters: and H-Ras (residues 1-166) were transformed into Escherichia coli; His6; made in house; host or cells: Escherichia coli BL21(DE3); conditions: EDTA catalyzed exchange, then pull-down by Raf-1-RBD
Experimental: FIGS. 29A-29D. […] FIG. 29D: Reconstruction of Ras cycle is achieved by inducing nucleotide exchange of 100 nM Ras by various concentrations of SOS^cat for either 1 or 2 hours and subsequent pull-down by Raf-1-RBD.
FIGS. 33A-33D. […] In FIG. 33B) through FIG. 33D), normalized pull-down signals are shown below the blot. S. E. M for each signal, number of replicates, and […] for each comparative Standard T-Test are summarized herein (see Tables 33B, 33C, and 33D). […] Comparative statistics were done for normalized pull-down signals between protein constructs of the same condition (i.e. in FIG. 33B) and FIG. 33C), column 1 for unlabeled and 1 for labeled protein, 2 for unlabeled and 2 for labeled, and so on were statistically compared, and in FIG. 33D) only the +SOS^cat and +GppNHp lanes were compared across protein constructs). FIG. 33A) Cartoon representation of pull down protocol. […] Reported values are quantified pull-down signals normalized to input. FIG. 33B) Cartoon representation of pull down protocol. […] FIG. 33C) Cartoon representation of pull down protocol. […] FIG. 33D) Cartoon representation of pull down protocol. Ras activation is achieved by catalyzing nucleotide exchange by SOS^cat and indirectly reading out activated Ras by subsequent pull down by Raf-1-RBD.

Structure (SMILES): COc1ccc(-n2ncc(C(=O)NCCCSSCCN(C)C)c2C(F)(F)F)cc1 [Compound 2C07, N-(3-((2-(dimethylamino)ethyl)disulfanyl)propyl)-1-(4-methoxyphenyl)-5-(trifluoromethyl)-1H-pyrazole-4-carboxamide]
- βME50 (H-Ras(M72C) GppNHp [1]; H-Ras(M72C) GppNHp, βME concentration that reduces fragment modification to 50%): 1.10 mM
- labeling of H-Ras(M72C) GppNHp (H-Ras(M72C) GppNHp [1]; disulfide tethering at Cys 72): readily modifies
- Normalized Averaged Pull Down (SOS PD Assay) ([2]; H-Ras(M72C) 2C07, [Ras] printed 200 nM, input normalized 1.00): 0.09
- Normalized Averaged Pull Down (SOS PD Assay) ([2]; H-Ras(M72C) 2C07, [Ras] 20 nM): 0.002
- Normalized Averaged Pull Down (SOS PD Assay) ([2]; H-Ras(M72C) 2C07, [Ras] 80 nM): 0.01
- Normalized Averaged Pull Down (SOS PD Assay) ([2]; H-Ras(M72C) 2C07, [Ras] 200 nM): 0.03
- Normalized Averaged Pull Down (SOS PD Assay) ([2]; H-Ras(M72C) 2C07, [Ras] 400 nM): 0.06
- nucleotide preference (H-Ras(M72C) GppNHp [3]): alters intrinsic Ras affinity for nucleotide towards GDP; also recorded: alters Ras nucleotide preference

— patent publication US11136297B2, “Compositions and methods for treating cancer” (THE REGENTS OF THE UNIVERSITY OF CALIFORNIA, priority 2016, dated 2021)
